The source made the active and inactive calls.
Tests used:
Format in all cases: functional, cell-based
[1] = tested on: HepG2; assay: Cytotoxicity against human HepG2 cells at 60 ug/ml after 72 hrs by MTT assay
[2] = tested on: MDA-MB-231; assay: Cytotoxicity against human MDA-MB-231 cells at 60 ug/ml after 72 hrs by MTT assay
[3] = tested on: A549; assay: Cytotoxicity against human A549 cells at 60 ug/ml after 72 hrs by MTT assay

Measured: Activity

CC1=C/C(=C2/CCCN3CCC[C@H]23)OC1=O
inactive: all assays above

CC1=C/C(=C2\CCCN3CCC[C@H]23)OC1=O
inactive: all assays above
